In patent US4859707A, “Sulfur-substituted phenylacetamides” (Key Pharmaceuticals, Inc., priority 1983, dated 1989):

Assays:
[1] = Stability toward human plasma; format: in vitro ADME; conditions: 37.0° C., over 2-3 hours
Description: The freshly collected human plasma was stored in a refrigerator and used within 1 week from the date it was collected. A portion of […] at a standard methanol solution of the compound to be tested was mixed with 7.0 ml of plasma, previously equilibrated to 37.0° C., to result in an initial concentration of 0.2 mg/ml. Samples of 1.0 ml were withdrawn from the test medium, mixed immediately with 4.0 ml of ice cold 95% ethanol, and placed in a freezer. When all samples had been collected, they were centrifuged and the supernatant analyzed by HPLC.

[2] = tested on: esterase (carboxylic-ester hydrolase, EC 3.1.1.1); assay: Stability toward purified esterases: esterase (carboxylic-ester hydrolase, EC 3.1.1.1); format: in vitro ADME, porcine; conditions: pH 8.0, 37.0° C., over 2-3 hours
Description: (§1) The effect of esterase (carboxylic-ester hydrolase, EC 3.1.1.1) and butyryl cholinesterase (EC 3.1.1.8), isolated from porcine liver and horse serum, was tested as follows: A portion of the enzyme and […] of a standard solution of the compound in methanol were added to 2.50 ml of 0.05M TRIS buffer, pH 8.0, previously equilibrated to 37.0° C., resulting in solutions containing 5.2 units of enzyme and 0.4 mg of compound in one ml. Aliquots ([…]) were injected into the column at various intervals.

[3] = tested on: butyryl cholinesterase (EC 3.1.1.8); assay: Stability toward purified esterases: butyryl cholinesterase (EC 3.1.1.8); format: in vitro ADME, horse; conditions: pH 8.0, 37.0° C., over 2-3 hours
Description: as §1

[4] = Metabolism in bovine liver microsomal preparations; format: in vitro ADME; conditions: 37.0° C., pH 8.0, 1 mg/ml
Description: Two kg of minced bovine liver were mixed with 4 liters of homogenization medium (0.34M sucrose, 1 mM EDTA, and 5 mM TRIS-HCI buffer ph 7.5) and sieved through a screen. The sieved tissue was homogenized for 2 min in a Tekmar grinder. The homogenate was centrifuged successively at 980 g for 10 min and 10960 g for 10 min. The resulting supernatant was then centrifuged at 31300 g for 45 min. All procedures were carried out at 4° C. The microsomal pallet was suspended in an equal volume of 20 mM TRIS-HCI buffer pH 8.0 containing 1 mM EDTA. Centrifugation of this suspension at 123000 g for 90 min gave a pallet which is referred to as the washed microsomes. This pallet could be stored frozen for months with little loss of activity.
The washed microsomes were mixed in a ratio of 1:2 (v/v) with 50 mM TRIS-HCI buffer ph 8.0. To 3.0 ml of this solution, previously equilibrated to 37.0° C., was added 0.2 ml of a standard solution of the compound to be tested resulting in an initial concentration of 1 mg/ml. Samples of 0.50 ml were withdrawn from the test medium, mixed immediately with 1.0 ml of ice cold 95% ethanol and place in a freezer. When all samples had been collected, they were centrifuged and the supernatant analyzed by HPLC.

[5] = In vivo evaluation in rats (blood, urine and feces levels); parameters: species or system female Wistar rats; conditions: for Compound in urine after intravenous injection: i.v.
Description: A solution of test compound in DMSO was injected slowly through the jugular vein (65 mg/kg) to a group of female Wistar rats (150-200 g), 1.00 ml blood samples were taken at various time intervals, mixed with 2.00 ml of ice cold acetonitrile, and placed in a freezer. When all samples had been collected, they were centrifuged and the supernatant analyzed by HPLC. In a separate experiment urine samples were collected after i.v. administration of the test compound. A solution of test compound in polyethylene glycol was given p.o. to a group of rats (0.25 g/kg) and blood samples analyzed as before. Also, urine and feces samples were analyzed after p.o. administration of the test compound.

[6] = Estimation of LD50 in mice; conditions: mouse, in vivo, ip, intraperitoneal in dimethylsulfoxide, observed for 48 hr
Excerpt: The LD50 in white CD-1 male mice (average mass, 24.0±0.1 g) was estimated.

ventricular arrhythmia = assay: Evaluation of antiarrhythmic activity in dogs (ouabain-induced ventricular arrhythmia); format: in vivo, dog; conditions: for minimal effective dose: Canis lupus familiaris, iv, ouabain arrhythmia, i.v. infusion 0.5 mg/kg/min, read-out: Dose ± s.d. (dose of compound producing reversion to normal rhythm); for Duration of normal sinus rhythm after drug infusion: after end of i.v. infusion; for Dose required to produce reversion to normal rhythm relative to lidocaine / Duration of the effect relative to lidocaine: compared with lidocaine; for Arrhythmia activity in dogs: in words
Description: Dogs of either sex were anesthetized with pentabarbital sodium, 30 mg/kg, i.v. A lead II EKG was recorded and heart rate monitored on a Grass polygraph with appropriate signal treatment modules. […] After a 20 minute stabilization period during which fast paper speed record segments (100 mm/sec) were taken to assess EKG profile, a […] dose of ouabain was injected intravenously as bolus. This was followed by 5 mg/kg doses of ouabain i.v., every 10 minutes, until a ventricular arrthymias occured--at lest 50% ventricular or septal ectopic beats. This usually occurred after a total dose of about 60 mg/kg. After 10 min of sustained arrhythmia, the compound to be tested was given by i.v. in fusion at a rate of 0.5 mg/kg/min (2 ml/min, flow-rate). The infusion was maintained until a normal sinus node heart rhythm was noted. The infusion was stopped and the total dose of compound administered was determined. The length of time that the normal sinus rhythm persisted after the end of infusion of the compound was also determined.
In the table above, "dose" is dose of compound mg/kg producing reversion to normal rhythm. "Duration" is duration in minutes of normal sinus rhythm after drug infusion.

[7] = intravenous, after uptake by highly perfused organs; cited from earlier work

| SMILES | Stability / degradation in human plasma [1] | Stability / degradation by esterase [2] | Stability / degradation by butyryl cholinesterase [3] | Hydrolysis by bovine liver microsomes [4] | Compound in urine after intravenous injection [5] | Unchanged compound in blood ([5]; p.o.) | Unchanged compound in urine ([5]; p.o.) | Absorption after oral administration ([5]; p.o. 0.25 g/kg) | dose excreted ([5]; rat, feces, po, 250 mg/kg, p.o., read-out: Unchanged compound in feces) | LD50 at 48 h [6] | minimal effective dose (ventricular arrhythmia) | Duration of normal sinus rhythm after drug infusion (ventricular arrhythmia) | Dose required to produce reversion to normal rhythm relative to lidocaine (ventricular arrhythmia) | Duration of the effect relative to lidocaine (ventricular arrhythmia) | Arrhythmia activity in dogs (ventricular arrhythmia) | Bioavailability ([5]; p.o.) | Unchanged compound in feces (in words) ([5]; p.o.) | Part of the dose left in blood [7] |
| --- | --- | --- | --- | --- | --- | --- | --- | --- | --- | --- | --- | --- | --- | --- | --- | --- | --- | --- |
| Cc1cccc(C)c1NC(=O)C[S+](C)C [Example 2, 2-Dimethylsulfonic-N-(2,6-dimethylphenyl)acetamide iodide] | no degradation could be observed over a period of 2-3 hours | no degradation could be observed over a period of 2-3 hours | no degradation could be observed over a period of 2-3 hours | hydrolyzed very slowly | Only minimal amounts | significant amounts of the unchanged compound could be detected in the blood | nothing in the urine | absorbed slowly | ~7% | 300 mg/kg | 3.82 ± 0.85 mg/kg | > 15 min | somewhat larger doses were required | much longer | considerable arrhythmia activity | – | – | – |
| CCSCC(=O)Nc1c(C)cccc1C [Example 5, 2-Ethylthio-N-(2,6-dimethylphenyl)acetamide] | no degradation could be observed over a period of 2-3 hours | no degradation could be observed over a period of 2-3 hours | no degradation could be observed over a period of 2-3 hours | – | Only minimal amounts | – | no unchanged compound could be detected in the feces or the urine | – | – | 2100 mg/kg | 2.5 ± 2.8 mg/kg | > 20 min | somewhat larger doses were required | much longer | considerable arrhythmia activity | good bioavailability | no unchanged compound could be detected in the feces or the urine | – |
| CCN(CC)CC(=O)Nc1c(C)cccc1C [lidocaine, reference compound] | – | – | – | – | – | – | – | – | – | – | 1.84 ± 0.32 mg/kg | 1.23 ± 0.37 min | – | – | – | – | – | about 15% |
